Among the test systems are 786-0; CCRF-CEM; HCT-116; HCT-15; M14; MDA-MB-435; MDA-N; Malme-3M; OVCAR-4; SF-268; SK-MEL-2; SNB-19; T47D; UACC-257; CAKI-1; UACC-62.
What all share (assay): NCI anticancer screen, dose series, 48 h

The structures appear in SMILES notation.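 Results reflect a 48-hour exposure of cells in 96-well plates to compound at five concentrations. At the GI50, growth is halved.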 The source made the active and inactive calls. No stated cut-off is given here; in the data, active = GI50 up to about 1.1 µM and inactive = higher. Where a SMILES comes first, the peptide text is derived from it. [ ]: non-standard residue; d: D form. The star is where a group is joined. Phe(2-OMe) = COc1ccccc1C[CH](N)C(=O)O; Cbz = O=C(OCc1ccccc1)*; OBn = c1ccc(CO*)cc1 Where only a bound is given, the exact number is not on record here.

Regarding `Cn1c(-c2ccc(/N=N/Nc3ccc(-c4n[nH]c(=S)n4C)cc3)cc2)n[nH]c1=S`, the GI50 was 52 µM (inactive) in the assay with 786-0; 3.98 µM (inactive) in the assay with CCRF-CEM; 25.7 µM (inactive) in the assay with HCT-116; above 100 µM in the assay with HCT-15; 8.89 µM (inactive) in the assay with M14; > 100 µM (inactive) in the assay with MDA-MB-435. In addition, the GI50 with MDA-N was > 100 µM (inactive); with Malme-3M, > 100 µM (inactive); in the assay on OVCAR-4, > 100 µM (inactive); in the assay with SF-268, 16.5 µM (inactive); with SK-MEL-2 it was 5.7 µM (inactive); in the assay on SNB-19, 17.7 µM (inactive). In addition, the GI50 in the assay on T47D was 1.94 µM (inactive); in the assay on UACC-257, > 100 µM (inactive).

Take `COc1ccc2c(c1)C(N)CC2=O` (stereo not drawn): the GI50 in the assay on 786-0 is > 100 µM (inactive); in the assay on CAKI-1, > 100 µM (inactive); in the assay with CCRF-CEM it was > 100 µM (inactive); with HCT-116, > 100 µM (inactive); with HCT-15, above 100 µM; in the assay on M14, > 100 µM (inactive). Also, the GI50 was > 100 µM (inactive) with MDA-MB-435; > 100 µM (inactive) with OVCAR-4; > 100 µM (inactive) with SF-268; 27 µM (inactive) in the assay with SK-MEL-2; > 100 µM (inactive) in the assay on SNB-19; > 100 µM (inactive) in the assay on T47D. For the same compound, the GI50 in the assay with UACC-257 and in the assay on UACC-62 was > 100 µM (inactive) throughout.

For the compound `CCOC(=O)NC(Nc1cccc(F)c1)(C(F)(F)F)C(F)(F)F`, the GI50 was > 100 µM (inactive) with 786-0; > 100 µM (inactive) in the assay on CAKI-1; > 100 µM (inactive) in the assay on CCRF-CEM; > 100 µM (inactive) with HCT-116; above 100 µM in the assay on HCT-15; > 100 µM (inactive) in the assay with M14. In addition, the GI50 with MDA-MB-435, with MDA-N, in the assay on Malme-3M, with SF-268, in the assay on SK-MEL-2 and in the assay with SNB-19 was > 100 µM (inactive) in each case. Further, the GI50 in the assay on T47D is > 100 µM (inactive); in the assay with UACC-257, > 100 µM (inactive); with UACC-62 it was 86.5 µM (inactive).

For `COc1ccc(-n2c3c(c4cc(O)ccc42)Cc2ccccc2C3=O)cc1`, the GI50 in the assay with 786-0 is 50.2 µM (inactive); with CAKI-1, 30.2 µM (inactive); with CCRF-CEM, 4.9 µM (inactive); with HCT-116, 27.6 µM (inactive); in the assay with HCT-15 it was 25.1 µM; in the assay with M14, 38.2 µM (inactive). Besides, the GI50 with MDA-MB-435 was 64.6 µM (inactive); in the assay on MDA-N, 65.6 µM (inactive); with Malme-3M, > 100 µM (inactive); in the assay with OVCAR-4 it was 7.83 µM (inactive); in the assay with SF-268, 26.6 µM (inactive); in the assay on SK-MEL-2, 65.3 µM (inactive). Besides, the GI50 was > 100 µM (inactive) with SNB-19, > 100 µM (inactive) with UACC-257 and 48.5 µM (inactive) with UACC-62.

Consider `COc1cc2c(cc1C)NC(=O)/C2=C/c1c(Cl)[nH]c2ccccc12`, for which the GI50 is 6.21 µM (inactive) in the assay with 786-0; 7.71 µM (inactive) with CAKI-1; 3.56 µM (inactive) in the assay on CCRF-CEM; 4.89 µM (inactive) with HCT-116; 3.38 µM with HCT-15; 3.21 µM (inactive) in the assay with M14. Moreover, the GI50 was 1.62 µM (inactive) in the assay on MDA-MB-435; 1.63 µM (inactive) in the assay on MDA-N; 3.88 µM (inactive) in the assay with Malme-3M; 4.22 µM (inactive) in the assay on SF-268; 2.8 µM (inactive) in the assay on SK-MEL-2; 4.5 µM (inactive) in the assay on SNB-19. Further, the GI50 with T47D was 5.61 µM (inactive); in the assay with UACC-257, 10.7 µM (inactive); with UACC-62, 3.57 µM (inactive).

For `O=c1[nH]c2cc3cccnc3c(Cl)c2nc1CBr`, the GI50 in the assay with 786-0 was 6.49 µM (inactive); in the assay on CAKI-1, 15.1 µM (inactive); in the assay with CCRF-CEM it was 5.79 µM (inactive); with HCT-116, 11.7 µM (inactive); in the assay with HCT-15, 3.08 µM; in the assay with M14, 13.5 µM (inactive). The GI50 is 16 µM (inactive) in the assay on MDA-MB-435; 15.6 µM (inactive) with MDA-N; 23.1 µM (inactive) with Malme-3M; 19.3 µM (inactive) in the assay on OVCAR-4; 22.2 µM (inactive) in the assay on SF-268; 5.73 µM (inactive) with SNB-19. Further, the values for the GI50 with T47D, in the assay on UACC-257 and in the assay on UACC-62 were 5.89 µM (inactive), 18.7 µM (inactive) and 12.4 µM (inactive), respectively.

`COC(=O)C(Cc1ccccc1OC)NC(=O)C(CC(=O)OCc1ccccc1)NC(=O)OCc1ccccc1` (stereo not drawn) (Cbz-Asp(OBn)-[Phe(2-OMe)]-OMe; configuration not given here): the GI50 in the assay on 786-0 was > 100 µM (inactive); in the assay on CCRF-CEM it was 38 µM (inactive); in the assay on HCT-116 it was 55.5 µM (inactive); in the assay on M14 it was > 100 µM (inactive); with MDA-N it was 95.7 µM (inactive); in the assay with Malme-3M, > 100 µM (inactive). For the same compound, the GI50 in the assay with SK-MEL-2 is > 100 µM (inactive); in the assay on SNB-19, > 100 µM (inactive); in the assay with UACC-257, > 100 µM (inactive); in the assay with UACC-62, 82 µM (inactive).

Turning to `N#Cc1nc(-c2ccsc2)oc1N`, the GI50 was > 100 µM (inactive) with 786-0; > 100 µM (inactive) in the assay on CAKI-1; > 100 µM (inactive) in the assay with CCRF-CEM; > 100 µM (inactive) in the assay on HCT-116; above 100 µM with HCT-15; > 100 µM (inactive) in the assay on M14. The GI50 in the assay on MDA-MB-435, in the assay on MDA-N, in the assay on SF-268, in the assay with SK-MEL-2, in the assay on SNB-19 and in the assay with UACC-257 was > 100 µM (inactive) in each case. The GI50 in the assay on UACC-62 was > 100 µM (inactive).

Take `CC(CO)(CO)N1C(=O)C2C3c4ccccc4C(c4ccccc43)C2C1=O` (stereo not drawn): the GI50 with 786-0 is > 100 µM (inactive); in the assay on CAKI-1, > 100 µM (inactive); in the assay on CCRF-CEM, > 100 µM (inactive); in the assay with HCT-116, > 100 µM (inactive); in the assay on HCT-15, above 100 µM; with M14 it was > 100 µM (inactive). The GI50 in the assay with MDA-MB-435, with MDA-N, in the assay on Malme-3M, with SF-268, in the assay on SK-MEL-2 and with SNB-19 was > 100 µM (inactive) in each case. The GI50 in the assay on T47D, in the assay with UACC-257 and in the assay with UACC-62 was > 100 µM (inactive) throughout.

`COC1=CC23CCCN2CCc2cc4c(cc2C3C1O)OCO4` (stereo not drawn): the GI50 was 44.9 µM (inactive) with 786-0; 31.4 µM (inactive) in the assay on CAKI-1; 41.2 µM (inactive) in the assay with CCRF-CEM; 44.5 µM (inactive) in the assay on HCT-116; 41.8 µM in the assay on HCT-15; > 100 µM (inactive) in the assay with M14. The GI50 in the assay with MDA-MB-435 is > 100 µM (inactive); in the assay on Malme-3M, 43 µM (inactive); with OVCAR-4, 44.6 µM (inactive); in the assay with SF-268 it was 50.2 µM (inactive); in the assay on SK-MEL-2, 54.2 µM (inactive); with SNB-19 it was 20.3 µM (inactive). The GI50 in the assay on T47D was 92.5 µM (inactive); in the assay on UACC-257, > 100 µM (inactive); in the assay on UACC-62, > 100 µM (inactive).

Take `COc1cc2c(/C=C3/C(=O)Nc4ccc(O)cc43)c(Cl)n(Cc3ccccc3)c2cc1C`: the GI50 with 786-0 was 0.222 µM (active); in the assay on CAKI-1, 0.408 µM (active); in the assay with CCRF-CEM it was 0.873 µM (active); with HCT-116, 0.421 µM (active); in the assay on HCT-15, 1.27 µM; with M14, 0.6 µM (active). For the same compound, the GI50 was 0.078 µM (active) with MDA-MB-435; 0.24 µM (active) with Malme-3M; 4.2 µM (inactive) in the assay on OVCAR-4; 0.678 µM (active) in the assay with SF-268; 3.73 µM (inactive) in the assay with SK-MEL-2; 0.596 µM (active) in the assay with SNB-19. Besides, the GI50 with T47D was 4.93 µM (inactive); in the assay on UACC-257, 0.818 µM (active); in the assay with UACC-62, 2.37 µM (inactive).

For the compound `COc1cc(CNc2nc3ccccc3nc2C(=O)O)cc(OC)c1OC`, the GI50 in the assay with 786-0 is > 100 µM (inactive); in the assay on CAKI-1, > 100 µM (inactive); in the assay with CCRF-CEM, > 100 µM (inactive); in the assay with HCT-116, > 100 µM (inactive); with HCT-15, above 100 µM; in the assay on MDA-MB-435, > 100 µM (inactive). For the same compound, the GI50 in the assay with MDA-N, in the assay with Malme-3M, in the assay on OVCAR-4, with SF-268, in the assay on T47D and in the assay with UACC-257 was > 100 µM (inactive) each time. Also, the GI50 with UACC-62 is 74 µM (inactive).

Regarding `COc1cc(OCc2ccc3nc(OC)c(OC)nc3c2)cc(OC)c1OC`, the GI50 was > 10 µM (inactive) with 786-0; > 10 µM (inactive) in the assay with CAKI-1; > 10 µM (inactive) in the assay on CCRF-CEM; > 10 µM (inactive) in the assay with HCT-116; above 10 µM with HCT-15; > 10 µM (inactive) in the assay on M14. Moreover, the GI50 was > 10 µM (inactive) in the assay on MDA-MB-435; > 10 µM (inactive) in the assay on MDA-N; > 10 µM (inactive) with Malme-3M; > 8 µM (inactive) in the assay on OVCAR-4; > 10 µM (inactive) in the assay with SF-268; > 10 µM (inactive) in the assay on SNB-19. For the same compound, the GI50 in the assay with T47D, with UACC-257 and with UACC-62 was > 10 µM (inactive) each time.

Regarding `COC(=O)C1=CN(C2CCCCC2)C2(c3ccccc3)c3ccccc3C(=O)OC(=O)C12` (stereo not drawn), the GI50 in the assay with 786-0 is > 100 µM (inactive); in the assay on CAKI-1, 46.8 µM (inactive); with CCRF-CEM, > 100 µM (inactive); in the assay with HCT-116, 64.9 µM (inactive); in the assay on HCT-15 it was above 100 µM; in the assay with M14 it was > 100 µM (inactive). Also, the GI50 in the assay with MDA-MB-435 was 46.5 µM (inactive); with MDA-N, 58.5 µM (inactive); in the assay on Malme-3M it was > 100 µM (inactive); with OVCAR-4, > 100 µM (inactive); in the assay on SF-268, > 100 µM (inactive); in the assay with SK-MEL-2, > 100 µM (inactive). In addition, the figures for the GI50 in the assay on SNB-19 and in the assay on UACC-257 were > 100 µM (inactive) and 49.2 µM (inactive), respectively.

For the origin of these results see ChEMBL document CHEMBL1201862, “PubChem BioAssay data set” (2004).
